Data published in patent US10457686B2, “[1,2,3]triazolo[4,5-D]pyrimidine derivatives” (Hoffmann-La Roche Inc., priority 2016, dated 2019).

Experiments:
human CB2 = human CB2 (Homo sapiens (Human), UniProt P34972); assay: Radioligand binding assay, human CNR2 (CB2) receptor, [3H]-CP-55,940; conditions: membrane preparations of HEK cells expressing human CNR2; 2.6 nM [3H]-CP-55,940
Procedure: (§1) Radioligand Binding Assay
(§2) The affinity of the compounds of the invention for cannabinoid receptors was determined using recommended amounts of membrane preparations (PerkinElmer) of human embryonic kidney (HEK) cells expressing the human CNR1 or CNR2 receptors in conjunction with 1.5 or 2.6 nM [3H]-CP-55,940 (Perkin Elmer) as radioligand, respectively. Binding was performed in binding buffer (50 mM Tris, 5 mM MgCl2, 2.5 mM EDTA, and 0.5% (wt/vol) fatty acid free BSA, pH 7.4 for CB1 receptor and 50 mM Tris, 5 mM MgCl2, 2.5 mM EGTA, and 0.1% (wt/vol) fatty acid free BSA, pH 7.4 for CB2 receptor) in a total volume of 0.2 mL for 1 h at 30° C. shaking. The reaction was terminated by rapid filtration through microfiltration plates coated with 0.5% polyethylenimine (UniFilter GF/B filter plate; Packard). Bound radioactivity was analyzed for Ki using nonlinear regression analysis (Activity Base, ID Business Solution, Limited), with the Kd values for [^3H]CP55,940 determined from saturation experiments.
The compounds according to formula (I) have an activity in the above assay (Ki) particularly of 0.5 nM to 10 μM, more particularly of 0.5 nM to 3 μM and most particularly of 0.5 nM to 100 nM.

human CB1 = human CB1 (Homo sapiens (Human), UniProt P21554); assay: Radioligand binding assay, human CNR1 (CB1) receptor, [3H]-CP-55,940; conditions: membrane preparations of HEK cells expressing human CNR1; 1.5 nM [3H]-CP-55,940
Procedure: as §1, §2

Sequence of human CB1 (P21554 whole entry): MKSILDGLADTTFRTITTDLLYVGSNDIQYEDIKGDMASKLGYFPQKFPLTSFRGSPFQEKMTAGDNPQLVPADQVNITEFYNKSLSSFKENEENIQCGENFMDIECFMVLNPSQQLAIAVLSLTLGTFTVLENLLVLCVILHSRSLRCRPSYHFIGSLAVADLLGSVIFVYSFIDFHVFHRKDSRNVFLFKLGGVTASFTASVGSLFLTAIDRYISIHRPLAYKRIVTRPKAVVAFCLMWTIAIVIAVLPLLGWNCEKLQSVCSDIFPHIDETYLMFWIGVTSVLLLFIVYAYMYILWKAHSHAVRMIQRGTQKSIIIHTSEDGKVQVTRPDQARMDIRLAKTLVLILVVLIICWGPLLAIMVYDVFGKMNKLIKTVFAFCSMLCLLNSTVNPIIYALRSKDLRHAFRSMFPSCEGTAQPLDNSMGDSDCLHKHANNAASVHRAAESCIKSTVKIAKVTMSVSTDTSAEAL
Sequence of human CB2 (P34972 whole entry): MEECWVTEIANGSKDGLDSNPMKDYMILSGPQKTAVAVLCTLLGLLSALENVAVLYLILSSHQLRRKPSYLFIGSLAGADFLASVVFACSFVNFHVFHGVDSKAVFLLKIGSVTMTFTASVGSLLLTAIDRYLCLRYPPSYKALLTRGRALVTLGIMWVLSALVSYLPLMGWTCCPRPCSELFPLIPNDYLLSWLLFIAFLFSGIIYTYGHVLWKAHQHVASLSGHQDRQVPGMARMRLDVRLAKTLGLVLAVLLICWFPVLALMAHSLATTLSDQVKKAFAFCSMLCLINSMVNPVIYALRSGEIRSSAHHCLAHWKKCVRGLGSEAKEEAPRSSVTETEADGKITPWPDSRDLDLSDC

Row | Structure (SMILES) | Ki (human CB2) [µM] | Ki (human CB1) [µM]
1 | C#CCCC1(CCNC(=O)c2nonc2Cn2nc3nc(C(C)(C)C)nc(N4CCC(F)(F)C4)c3n2)N=N1 [Example 2, 4-{[5-tert-Butyl-7-(3,3-difluoropyrrolidin-1-yl)-2H-[1,2,3]triazolo[4,5-d]pyrimidin-2-yl]methyl}-N-{2-[3-(but-3-yn-1-yl)-3H-diaziren-3-yl]ethyl}-1,2,5-oxadiazole-3-carboxamide] | 0.932 | > 10
2 | C#CCCC1(CCNC(=O)c2nonc2Cn2nc3nc(C(C)(C)C)nc(N4CC[C@H](O)C4)c3n2)N=N1 [Example 3, 4-({5-tert-Butyl-7-[(3S)-3-hydroxypyrrolidin-1-yl]-2H-[1,2,3]triazolo[4,5-d]pyrimidin-2-yl}methyl)-N-{2-[3-(but-3-yn-1-yl)-3H-diaziren-3-yl]ethyl}-1,2,5-oxadiazole-3-carboxamide] | 2.86 | > 10
3 | C#Cc1cccc(C2(C(F)(F)F)N=N2)c1Cn1nc2nc(C(F)(F)c3ccccc3)nc(N3CCC(F)(F)C3)c2n1 [Example 4, 5-[Difluoro(phenyl)methyl]-7-(3,3-difluoropyrrolidin-1-yl)-2-[[2-ethynyl-6-[3-(trifluoromethyl)diazirin-3-yl]phenyl]methyl]triazolo[4,5-d]pyrimidine] | 1.07 | > 10
4 | C#Cc1cccc(C2(C(F)(F)F)N=N2)c1Cn1nc2nc(C(C)(C)C)nc(N3CCC(F)(F)C3)c2n1 [Example 5, 5-tert-Butyl-7-(3,3-difluoropyrrolidin-1-yl)-2-[[2-ethynyl-6-[3-(trifluoromethyl)diazirin-3-yl]phenyl]methyl]triazolo[4,5-d]pyrimidine] | 0.0814 | 0.583
5 | C#Cc1cccc(C2(C(F)(F)F)N=N2)c1Cn1nc2nc(C(C)(C)C)nc(N3CC[C@H](O)C3)c2n1 [Example 6, (3S)-1-[5-tert-Butyl-2-[[2-ethynyl-6-[3-(trifluoromethyl)diazirin-3-yl]phenyl]methyl]triazolo[4,5-d]pyrimidin-7-yl]pyrrolidin-3-ol] | 0.0992 | > 10
6 | C#Cc1cccc(C2(C(F)(F)F)N=N2)c1Cn1nc2nc(C(F)(F)c3ccccc3)nc(N3CC[C@H](O)C3)c2n1 [Example 7, (3S)-1-[5-[Difluoro(phenyl)methyl]-2-[[2-ethynyl-6-[3-(trifluoromethyl)diazirin-3-yl]phenyl]methyl]triazolo[4,5-d]pyrimidin-7-yl]pyrrolidin-3-ol] | 0.358 | 5.46
